Data as given in the NIST ThermoML archive (doi:10.1021/je060271a).

Conditions: Liquid, Vibrating tube method

CCCCC(=O)OCC(COC(=O)CCCC)(COC(=O)CCCC)COC(=O)CCCC [pentaerythritol tetrapentanoate]
Conditions	mass density [kg/m3]
303.15 K, 29848 kPa	1028.9
303.15 K, 29879 kPa	1028.8
303.15 K, 29916 kPa	1029
303.15 K, 29948 kPa	1028.9
303.15 K, 29979 kPa	1029
303.15 K, 30016 kPa	1028.9
303.15 K, 30047 kPa	1028.9
303.15 K, 30079 kPa	1029
303.15 K, 30118 kPa	1029
303.15 K, 30150 kPa	1029.1
303.15 K, 30185 kPa	1029
303.15 K, 30217 kPa	1029
303.15 K, 30249 kPa	1029.1
303.15 K, 30286 kPa	1029
303.15 K, 30319 kPa	1029.1
303.15 K, 30352 kPa	1029.1
303.15 K, 30390 kPa	1029
303.15 K, 30423 kPa	1029.2
303.15 K, 30461 kPa	1029.1
303.15 K, 30493 kPa	1029.2
303.15 K, 30526 kPa	1029.2
303.15 K, 30566 kPa	1029.2
303.15 K, 30598 kPa	1029.2
303.15 K, 30631 kPa	1029.2
303.15 K, 30665 kPa	1029.4
303.15 K, 30705 kPa	1029.3
303.15 K, 30738 kPa	1029.3
303.15 K, 30777 kPa	1029.3
303.15 K, 30810 kPa	1029.3
303.15 K, 30844 kPa	1029.4
303.15 K, 30884 kPa	1029.4
303.15 K, 30917 kPa	1029.4
303.15 K, 30951 kPa	1029.4
303.15 K, 30991 kPa	1029.5
303.15 K, 31025 kPa	1029.5
303.15 K, 31060 kPa	1029.6
303.15 K, 31101 kPa	1029.5
303.15 K, 31135 kPa	1029.5
303.15 K, 31170 kPa	1029.5
303.15 K, 31204 kPa	1029.6
303.15 K, 31246 kPa	1029.7
303.15 K, 31280 kPa	1029.5
303.15 K, 31315 kPa	1029.6
303.15 K, 31350 kPa	1029.6
303.15 K, 31392 kPa	1029.7
303.15 K, 31427 kPa	1029.7
303.15 K, 31462 kPa	1029.8
303.15 K, 31504 kPa	1029.8
303.15 K, 31540 kPa	1029.7
303.15 K, 31576 kPa	1029.8
303.15 K, 31610 kPa	1029.8
303.15 K, 31653 kPa	1029.9
303.15 K, 31688 kPa	1029.9
303.15 K, 31731 kPa	1029.9
303.15 K, 31767 kPa	1029.8
303.15 K, 31803 kPa	1029.9
303.15 K, 31846 kPa	1030
303.15 K, 31882 kPa	1030
303.15 K, 31918 kPa	1029.9
303.15 K, 31954 kPa	1030
303.15 K, 31996 kPa	1030
303.15 K, 32033 kPa	1030
303.15 K, 32078 kPa	1030.1
303.15 K, 32115 kPa	1030.2
303.15 K, 32152 kPa	1030.1
303.15 K, 32188 kPa	1030.1
303.15 K, 32232 kPa	1030.1
303.15 K, 32269 kPa	1030.2
303.15 K, 32306 kPa	1030.2
303.15 K, 32351 kPa	1030.4
303.15 K, 32387 kPa	1030.3
303.15 K, 32432 kPa	1030.3
303.15 K, 32470 kPa	1030.3
303.15 K, 32507 kPa	1030.3
303.15 K, 32544 kPa	1030.2
303.15 K, 32590 kPa	1030.4
303.15 K, 32628 kPa	1030.3
303.15 K, 32667 kPa	1030.6
303.15 K, 32714 kPa	1030.4
303.15 K, 32752 kPa	1030.4
303.15 K, 32798 kPa	1030.6
303.15 K, 32838 kPa	1030.5
303.15 K, 32877 kPa	1030.5
303.15 K, 32926 kPa	1030.5
303.15 K, 32968 kPa	1030.5
303.15 K, 33012 kPa	1030.6
303.15 K, 33064 kPa	1030.6
303.15 K, 33109 kPa	1030.6
303.15 K, 33144 kPa	1030.7
303.15 K, 33166 kPa	1030.7
303.15 K, 33187 kPa	1030.7
303.15 K, 33214 kPa	1030.8
303.15 K, 33237 kPa	1030.6
303.15 K, 33258 kPa	1030.7
303.15 K, 33284 kPa	1030.8
303.15 K, 33307 kPa	1030.8
303.15 K, 33354 kPa	1030.8
303.15 K, 33377 kPa	1030.7
303.15 K, 33404 kPa	1030.7
303.15 K, 33423 kPa	1030.9
303.15 K, 33449 kPa	1030.8
303.15 K, 33472 kPa	1030.7
303.15 K, 33494 kPa	1030.9
303.15 K, 33521 kPa	1030.8
303.15 K, 33544 kPa	1030.8
303.15 K, 33594 kPa	1030.9
303.15 K, 33616 kPa	1030.9
303.15 K, 33643 kPa	1031
303.15 K, 33666 kPa	1031
303.15 K, 33687 kPa	1031
303.15 K, 33715 kPa	1030.9
303.15 K, 33740 kPa	1031
303.15 K, 33763 kPa	1031
303.15 K, 33790 kPa	1031.1
303.15 K, 33813 kPa	1031
303.15 K, 33836 kPa	1031
303.15 K, 33862 kPa	1031
303.15 K, 33886 kPa	1031.1
303.15 K, 33911 kPa	1031
303.15 K, 33938 kPa	1031.1
303.15 K, 33963 kPa	1031
303.15 K, 33987 kPa	1031.2
303.15 K, 34014 kPa	1031.2
303.15 K, 34041 kPa	1031.1
303.15 K, 34066 kPa	1031.2
303.15 K, 34091 kPa	1031.2
303.15 K, 34122 kPa	1031.2
303.15 K, 34148 kPa	1031.3
303.15 K, 34176 kPa	1031.2
303.15 K, 34209 kPa	1031.1
303.15 K, 34236 kPa	1031.2
303.15 K, 34272 kPa	1031.3
303.15 K, 34293 kPa	1031.3
303.15 K, 34298 kPa	1031.3
303.15 K, 34306 kPa	1031.3
303.15 K, 34335 kPa	1031.4
303.15 K, 34345 kPa	1031.4
303.15 K, 34355 kPa	1031.4
303.15 K, 34361 kPa	1031.3
303.15 K, 34369 kPa	1031.2
303.15 K, 34375 kPa	1031.4
303.15 K, 34382 kPa	1031.4
303.15 K, 34388 kPa	1031.3
303.16 K, 663.45 kPa	1011.3
303.16 K, 665.18 kPa	1011.4
303.16 K, 666.06 kPa	1011.3
303.16 K, 670.92 kPa	1011.3
303.16 K, 671.95 kPa	1011.3
303.16 K, 672.66 kPa	1011.2
303.16 K, 673.71 kPa	1011.2
303.16 K, 674.57 kPa	1011.2
303.16 K, 683.79 kPa	1011.3
303.16 K, 684.84 kPa	1011.3
303.16 K, 687.26 kPa	1011.2
303.16 K, 700.64 kPa	1011.3
303.16 K, 702.03 kPa	1011.2
303.16 K, 702.73 kPa	1011.4
303.16 K, 732.61 kPa	1011.3
303.16 K, 790.98 kPa	1011.3
303.16 K, 792.36 kPa	1011.4
